Molecular target: T1, AR (Homo sapiens, UniProt P10275)
T1 construct: endogenous in cells; host or cells: VCaP cells
T1 sequence (P10275 1-920): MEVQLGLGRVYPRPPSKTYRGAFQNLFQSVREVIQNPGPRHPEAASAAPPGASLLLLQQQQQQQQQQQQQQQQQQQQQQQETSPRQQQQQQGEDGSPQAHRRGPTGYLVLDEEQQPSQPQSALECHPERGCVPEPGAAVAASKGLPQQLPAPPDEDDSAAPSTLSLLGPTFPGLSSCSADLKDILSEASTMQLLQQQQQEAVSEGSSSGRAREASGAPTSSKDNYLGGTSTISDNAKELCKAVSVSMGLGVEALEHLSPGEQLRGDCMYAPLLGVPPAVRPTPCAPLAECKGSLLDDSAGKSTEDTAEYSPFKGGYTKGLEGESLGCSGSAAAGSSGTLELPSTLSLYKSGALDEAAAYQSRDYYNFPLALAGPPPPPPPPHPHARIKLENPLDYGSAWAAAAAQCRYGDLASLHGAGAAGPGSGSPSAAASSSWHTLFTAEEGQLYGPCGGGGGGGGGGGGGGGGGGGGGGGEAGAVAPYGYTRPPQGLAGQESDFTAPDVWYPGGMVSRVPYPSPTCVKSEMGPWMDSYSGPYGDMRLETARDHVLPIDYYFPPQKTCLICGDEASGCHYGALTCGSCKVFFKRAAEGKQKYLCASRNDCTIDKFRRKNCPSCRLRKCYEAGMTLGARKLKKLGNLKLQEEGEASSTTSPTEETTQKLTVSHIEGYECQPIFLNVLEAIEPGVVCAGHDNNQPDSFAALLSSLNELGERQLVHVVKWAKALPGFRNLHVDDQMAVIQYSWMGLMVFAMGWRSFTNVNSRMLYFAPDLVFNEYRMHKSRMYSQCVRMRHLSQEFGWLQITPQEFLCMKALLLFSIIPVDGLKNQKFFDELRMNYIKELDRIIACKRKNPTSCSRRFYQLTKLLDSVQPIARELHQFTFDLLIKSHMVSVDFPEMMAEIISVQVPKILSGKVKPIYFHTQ
Test: VCAP AR Degradation Assay
Format: cell-based
Conditions: for Y (AR degradation efficiency, % of DMSO control): class symbols *; for DC50: class symbols A-C, read-out: DC50
How it was run: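 24 h, 37 °C, VCaP (DMEM/8% FBS), 10-pt 1:3 dilutions from 5 μM final top, 0.1% DMSO ctrl. Lysis on ice/4 °C 1 h; total AR by sandwich ELISA, normalized to DMSO. 4PL fit → DC50, EC50, Y (min AR level).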

CCc1cc(N2C(=S)N(c3ccc(C#N)c(C(F)(F)F)c3)C(=O)C23CCCCC3)ccc1OCCN1C[C@@H](C)N(CC(=O)Nc2cccc(NC3CCC(=O)NC3=O)c2)[C@@H](C)C1 (stereo partly drawn) [Example 264, 2-((2S,6R)-4-(2-(4-(3-(4-cyano-3-(trifluoromethyl)phenyl)-4-oxo-2-thioxo-1,3-diazaspiro[4.5]decan-1-yl)-2-ethylphenoxy)ethyl)-2,6-dimethylpiperazin-1-yl)-N-(3-(2,6-dioxopiperidin-3-ylamino)phenyl)acetamide]
Y (AR degradation efficiency, % of DMSO control): * (0<Y<=25%) | DC50: < 0.1 µM

C[C@@H]1CN(CCOc2ccc(N3C(=S)N(c4ccc(C#N)c(C(F)(F)F)c4)C(=O)C3(C)C)cc2CCF)CCN1CC(=O)Nc1cccc(NC2CCC(=O)NC2=O)c1 (stereo partly drawn) [Example 164, 2-((R)-4-(2-(4-(3-(4-cyano-3-(trifluoromethyl)phenyl)-5,5-dimethyl-4-oxo-2-thioxoimidazolidin-1-yl)-2-(2-fluoroethyl)phenoxy)ethyl)-2-methylpiperazin-1-yl)-N-(3-(2,6-dioxopiperidin-3-ylamino)phenyl)acetamide]
Y (AR degradation efficiency, % of DMSO control): * (0<Y<=25%) | DC50: < 0.1 µM

From patent US12404241B2 (Celgene Corporation, priority 2018, dated 2025)
